Measured values reported in publication PMC9504289 (Pharmaceuticals, 2022).
Values joined by “and” are separate entries in the source; they are usually repeats but may differ in a detail not shown here. Equal values may be shown once. Read-outs that look alike come from different tables or passages of the source.

Tests used:
[1] = test system: SARS-CoV-2 pseudovirus (delta VoC); test: microbe, parasite or virus in culture; assay type: cell-based
HEK293T cells = test system: HEK293T cells
Source text: Figure 8 Cytotoxicity assessment. MTS cytotoxicity assay (HEK293T cells) using the same conditions as for the activity assessment (Figure 7). Data (symbols) are average ± SD of three experiments in duplicates; TC50 values shown in the legend were obtained from fitting with standard sigmoid curves as before.

[2] = test system: SARS-CoV-2 pseudovirus (orig. strain); test: microbe, parasite or virus in culture; assay type: cell-based; settings: Severe acute respiratory syndrome-related coronavirus, HEK-293T, read-out: Inhibition of SARS-CoV-2 pseudovirus entry (orig. strain) IC50
HCoV-NL63 S1 – hACE2 = HCoV-NL63 S1 – hACE2 (Human coronavirus NL63, UniProt Q6Q1S2); test: biochemical; assay type: binding; settings: for IC50: Inhibition of HCoV-NL63 S1 – hACE2 Binding: IC50
SARS-CoV-2 [3] = settings: read-out: antiviral activity IC50 confirmed in a live viral or pseudoviral assay; cited from earlier work
SARS-CoV-2-S = settings: read-out: KD for binding to SARS-CoV-2-S; cited from earlier work
SARS-CoV-2 [4] = settings: read-out: IC50 for SARS-CoV-2 infection inhibition; cited from earlier work
[5] = Severe acute respiratory syndrome-related coronavirus, HEK-293T, hACE2-expressing HEK293T, read-out: Inhibition of SARS-CoV-2 pseudovirus entry (delta VoC) IC50
[6] = same conditions as pseudovirus assay

HCoV-NL63 S1 – hACE2, sequence (Q6Q1S2 19-717 limits assumed): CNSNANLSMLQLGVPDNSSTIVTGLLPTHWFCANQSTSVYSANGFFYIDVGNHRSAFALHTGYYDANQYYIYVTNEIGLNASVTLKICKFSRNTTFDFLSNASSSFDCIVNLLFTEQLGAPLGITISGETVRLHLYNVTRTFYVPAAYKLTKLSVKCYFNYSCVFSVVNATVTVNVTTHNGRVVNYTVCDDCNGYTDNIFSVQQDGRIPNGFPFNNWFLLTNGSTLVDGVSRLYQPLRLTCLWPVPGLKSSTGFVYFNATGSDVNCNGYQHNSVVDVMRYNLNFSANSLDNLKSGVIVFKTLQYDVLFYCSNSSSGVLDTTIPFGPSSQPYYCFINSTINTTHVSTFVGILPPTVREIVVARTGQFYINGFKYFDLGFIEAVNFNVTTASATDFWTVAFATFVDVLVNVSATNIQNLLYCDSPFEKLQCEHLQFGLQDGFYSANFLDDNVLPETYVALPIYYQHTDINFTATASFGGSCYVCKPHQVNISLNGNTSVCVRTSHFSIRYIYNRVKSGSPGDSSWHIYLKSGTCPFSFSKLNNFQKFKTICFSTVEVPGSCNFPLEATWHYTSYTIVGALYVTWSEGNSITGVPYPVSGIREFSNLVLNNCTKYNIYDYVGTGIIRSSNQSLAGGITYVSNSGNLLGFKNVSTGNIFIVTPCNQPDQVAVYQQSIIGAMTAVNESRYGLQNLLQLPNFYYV

**Q.** For `O=C(Nc1ccc2cc(C(=O)Nc3cccc4cccc(S(=O)(=O)O)c34)ccc2c1)c1ccc([N+](=O)[O-])cc1` [DRI-C41041], which IC50 [1, 5] is on record?
**A.** 27.7 µM

**Q.** What about the “Cytotoxicity (HEK293T cells, MTS): TC50” value (HEK293T cells; [6]) of the same molecule?
**A.** > 1000.00 µM

**Q.** What about the IC50 ([2]; hACE2-expressing HEK293T) of the same molecule?
**A.** > 500 µM

**Q.** For `O=C(Nc1ccc(-c2ccc(C(=O)Nc3cccc4c(S(=O)(=O)O)cccc34)cc2)cc1)c1ccc([N+](=O)[O-])cc1` [DRI-C24041], which IC50 [1, 5] is on record?
**A.** 7.76 µM

**Q.** And the “Cytotoxicity (HEK293T cells, MTS): TC50” value (HEK293T cells; [6])?
**A.** > 600 µM and 617.90 µM

**Q.** And the IC50 ([2]; hACE2-expressing HEK293T)?
**A.** 6.58 µM

**Q.** What about the “loss of activity compared to the SARS-CoV assays” value (HCoV-NL63 S1 – hACE2) of the same molecule?
**A.** 2–5 fold

**Q.** What about the IC50 (HCoV-NL63 S1 – hACE2) of the same molecule?
**A.** 6.54 µM

**Q.** Which results are given for `Nc1c(/N=N/c2ccc(-c3ccc(/N=N/c4cc(S(=O)(=O)O)c5ccccc5c4N)cc3)cc2)cc(S(=O)(=O)O)c2ccccc12` [Congo red]?
**A.** IC50 (SARS-CoV-2 [3]): < 30 µM; IC50 [1, 5]: 3.07 µM; Cytotoxicity (HEK293T cells, MTS): TC50 (HEK293T cells; same conditions as pseudovirus assay, listed as CgRd): 130 µM and 130.40 µM; IC50 ([2]; hACE2-expressing HEK293T): 20.3 µM; IC50 (HCoV-NL63 S1 – hACE2): < 3 µM and 2.26 µM

**Q.** Which IC50 (SARS-CoV-2 [3]) does the source give for `C=C(C)[C@@H]1CCC(C)=C[C@H]1c1c(O)cc(CCCCC)c(C(=O)O)c1O` [cannabidiolic acid] here?
**A.** < 30 µM

**Q.** Which results are given for `O=C(Nc1ccc(-c2ccc(C(=O)Nc3cccc4cc(S(=O)(=O)O)ccc34)cc2)cc1)c1ccc([N+](=O)[O-])cc1` [DRI-C23041]?
**A.** IC50 (SARS-CoV-2 [3]): < 30 µM; IC50 [1, 5]: 5.42 µM; IC50 ([1]; read-out: Inhibition of SARS-CoV-2 pseudovirus entry (delta VoC) IC50, hACE2-expressing HEK293T): 6.31 µM; Cytotoxicity (HEK293T cells, MTS): TC50 (HEK293T cells; [6]): > 1000.00 µM; IC50 ([2]; hACE2-expressing HEK293T): 4.71 µM; loss of activity compared to the SARS-CoV assays (HCoV-NL63 S1 – hACE2): 2–5 fold; IC50 (HCoV-NL63 S1 – hACE2): 4.16 µM

**Q.** For `Cc1cc(-c2ccc(/N=N/c3ccc4c(S(=O)(=O)O)cc(S(=O)(=O)O)c(N)c4c3O)c(C)c2)ccc1/N=N/c1ccc2c(S(=O)(=O)O)cc(S(=O)(=O)O)c(N)c2c1O` [Evans blue], which IC50 (SARS-CoV-2 [3]) is on record?
**A.** < 30 µM

**Q.** And the Kd (SARS-CoV-2-S)?
**A.** 2.2 µM

**Q.** And the IC50 ([1]; Severe acute respiratory syndrome-related coronavirus, HEK-293T, read-out: Inhibition of SARS-CoV-2 pseudovirus entry (delta VoC) IC50, hACE2-expressing HEK293T)?
**A.** 25.4 µM

**Q.** What about the IC50 (SARS-CoV-2 [4]) of the same molecule?
**A.** 28.1 µM

**Q.** What about the “Cytotoxicity (HEK293T cells, MTS): TC50” value (HEK293T cells; same conditions as pseudovirus assay, listed as EvBl) of the same molecule?
**A.** 439 µM and 439.20 µM

**Q.** And the IC50 [2]?
**A.** 16.6 µM

**Q.** And the IC50 (HCoV-NL63 S1 – hACE2)?
**A.** < 3 µM and 2.6 µM

**Q.** What does the source list for `O=C(Nc1ccc(-c2ccc(C(=O)Nc3ccc(S(=O)(=O)O)c4cccc(S(=O)(=O)O)c34)cc2)cc1)c1ccc([N+](=O)[O-])cc1` [DRI-C2105041]?
**A.** IC50 [1, 5]: 26.9 µM; Cytotoxicity (HEK293T cells, MTS): TC50 (HEK293T cells; [6]): > 1000.00 µM; IC50 ([2]; hACE2-expressing HEK293T): 217 µM

**Q.** Which IC50 (SARS-CoV-2 [3]) does the source give for verteporfin here?
**A.** < 30 µM

**Q.** What does the source list for `O=S(=O)(O)c1ccc(/N=N/c2c(O)ccc3cc(S(=O)(=O)O)ccc23)cc1` [Sunset yellow, sunset yellow FCF]?
**A.** IC50 [1, 5]: > 500 µM; Cytotoxicity (HEK293T cells, MTS): TC50 (HEK293T cells; human): > 1000.00 µM; IC50 ([2]; hACE2-expressing HEK293T): > 500 µM; IC50 (HCoV-NL63 S1 – hACE2): > 500 µM

**Q.** Which results are given for `Nc1c(/N=N/c2ccc([N+](=O)[O-])cc2)c(S(=O)(=O)O)cc2cc(S(=O)(=O)O)c(/N=N/c3ccccc3)c(O)c12` [Naphthol blue black, naphthol blue black]?
**A.** IC50 [1, 5]: 174 µM; Cytotoxicity (HEK293T cells, MTS): TC50 (HEK293T cells; human): > 1000.00 µM; IC50 ([2]; hACE2-expressing HEK293T): > 500 µM; IC50 (HCoV-NL63 S1 – hACE2): 58.7 µM

**Q.** For `Nc1ccc2cc(S(=O)(=O)O)cc(O)c2c1/N=N/c1ccc(-c2ccc(/N=N/c3c(N)ccc4cc(S(=O)(=O)O)cc(O)c34)cc2)cc1` [Direct violet 1, direct violet 1], which IC50 (SARS-CoV-2 [3]) is on record?
**A.** < 30 µM

**Q.** What about the IC50 [1, 5] of the same molecule?
**A.** 2.97 µM

**Q.** What about the “Cytotoxicity (HEK293T cells, MTS): TC50” value (HEK293T cells; same conditions as pseudovirus assay, listed as DV1) of the same molecule?
**A.** 110 µM and 110.10 µM

**Q.** What about the IC50 ([2]; hACE2-expressing HEK293T) of the same molecule?
**A.** 35.8 µM

**Q.** And the IC50 (HCoV-NL63 S1 – hACE2)?
**A.** < 3 µM and 2.29 µM

**Q.** Which IC50 (SARS-CoV-2 [3]) does the source give for `CCCCCc1cc(O)c(C/C=C(\C)CCC=C(C)C)c(O)c1C(=O)O` [cannabigerolic acid] here?
**A.** < 30 µM
